In this assay the target is NAD-dependent protein deacylase sirtuin-6 (Homo sapiens, UniProt Q8N6T7). Kind of assay: Fluorimetric Assay. The protocol: Inhibitory constants (Ki) and IC50 values were determined under saturating substrate conditions by using a fluorimetric assay (components were purchased separately). […] Sirtuin deacetylation of the substrate renders the fluorophore-substrate bond susceptible to treatment with […]. Trypsin cleavage releases the fluorophore, resulting in an increase in fluorescence. Fluorescence intensity was measured on a Synergy HT Multi-Mode microplate fluorescence reader.
NAD-dependent protein deacylase sirtuin-6, sequence (Q8N6T7 whole entry): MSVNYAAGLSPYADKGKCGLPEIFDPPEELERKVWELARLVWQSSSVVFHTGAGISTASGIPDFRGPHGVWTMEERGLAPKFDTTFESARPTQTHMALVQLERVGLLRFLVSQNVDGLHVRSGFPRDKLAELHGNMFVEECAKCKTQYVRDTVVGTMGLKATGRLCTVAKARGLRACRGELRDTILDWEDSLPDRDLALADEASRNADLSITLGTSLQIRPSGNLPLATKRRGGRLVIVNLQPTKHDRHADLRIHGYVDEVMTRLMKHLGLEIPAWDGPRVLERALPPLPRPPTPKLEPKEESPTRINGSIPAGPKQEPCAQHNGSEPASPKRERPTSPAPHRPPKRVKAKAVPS

Take `O=C(O)c1cnccn1`: the IC50 (in general, the concentration that inhibits the measured activity by half) worked out at 927 µM.

Turning to `NC(=O)c1cnccn1` [Pyrazinamide], the IC50 came out at 417 µM.

The values above are taken from BindingDB's records for doi:10.1002/cbic.201600655 (University At Albany, 2017).
